Measurements published in patent publication US9682994B2, “Inhibitors of retroviral replication” (The Scripps Research Institute, priority 2011, dated 2017).

Key:
[1] = tested on: HIV-1 pNL4-3; assay: Chronically HIV-1 infected HeLa-CD4 cells, viral RNA by qRT-PCR / p24; format: cell-based; conditions: Human immunodeficiency virus 1; read-out: EC50 for abrogating chronic HIV infection
Method: FIG. 1G: p24 antigen quantification. Viral supernatants recovered from cells described in FIG. 1B, grown for 60 days, were assayed for their p24 antigen content using a sandwich ELISA kit. Error bars represent standard deviations.
First-strand cDNA from RNA for qPCR was prepared using […]™ first-strand cDNA kit (Invitrogen), following the manufacturer's instructions, using approximately 5 μg of RNA as starting material and random hexamers as first-strand primers. Quantitative PCR was performed with an aliquot of cDNA as template, using […]® 480 SYBR Green I Master (Roche) in a 20 μL reaction according to the manufacturer's instructions. […] The primers used were as follows: […]
Such an early time point rules out de novo infections. […] This conclusion was further supported by the fact that treatment of cells that were chronically infected, and therefore continuously shedding the virus (without incurring new infections, due to down-regulation of CD4 from the cell surface), reduced virus production to undetectable levels (FIG. 1F). […] Results were similar when viral release from cells treated for 60 days were measured by p24 enzyme-linked immunosorbent assay (ELISA) (FIG. 1G).

[2] = tested on: HeLa-CD4 cells; assay: MTT mitochondrial metabolic activity (cell viability); format: cell-based
[3] = tested on: HIV-1 pNL4-3; assay: Acute HIV-1 infection, HeLa-CD4-LTR-LacZ reporter CPRG assay; format: cell-based
Method: Forty-eight hours post infection a quantitative chlorophenol red-β-D-galactopyranoside (CPRG) assay was performed.
Twenty-four hours later HIV-1 pNL4-3 was added to the cells of both experiment sets (MOI>>10) in the presence of testing compound or DMSO control. CPRG assay performed 48 h later.
HeLa-CD4 cells were infected with HIV-1 pNL4-3 in the presence of the indicated compounds or DMSO. Forty hours post infection a CPRG assay was performed. […] Error bars represent standard deviation.
P42 cells were plated at 1×10^4 cells per well of 96 well. Twenty-four hours later HIV-1 pNL4-3 was added to the wells in the presence of testing compound or DMSO control in a total volume of […] Forty hours post infection cells were disrupted in lysis buffer (60 mM Na2HPO4, 40 mM NaH2PO4, 10 mM KCl, 10 mM MgSO4, 2.5 mM EDTA, 50 mM β-mercaptoethanol, 0.125% Nonidet P-40) and a quantitative chlorophenol red-β-D-galactopyranoside (CPRG)-based (Boehringer Mannheim) assay was performed. The cell extracts were incubated in a reaction buffer (0.9 M phosphate buffer [pH 7.4], 9 mM MgCl2, 11 mM β-mercaptoethanol, 7 mM CPRG) until a red color developed (from approximately 10 min to 4 h) and measured with an LP400 (Becton Dickinson) plate reader at 572 nm. Experiments were performed in triplicate.
Transcription of the HIV-1 provirus is regulated by both viral and cellular transcription factors. Before Tat is produced, low-level basal transcription from the viral promoter is initiated by cellular factors, such as the nuclear factor-kappa B (NF-kB), Sp1, TATA-binding protein and RNAPII. A desirable Tat inhibitor should block Tat-mediated activation of the viral promoter without affecting its basal transcription, which would result in cellular toxicity, given the shared transcription factors of the HIV promoter and cellular genes.

[4] = tested on: RNA polymerase; assay: Bio-CA pull-down, RNA polymerase
[5] = tested on: CMV and MLV promoters; assay: Transcription from CMV and MLV promoters; format: cell-based
Excerpt: DNA-PK was identified as a binding partner of CA by mass spectrometry and further confirmation of this interaction was provided by performing a pull down assay (FIG. 15). Without wishing to be bound by theory, it was hypothesized that part of the mechanism by which CA inhibits HIV replication is by blocking the accrued DNA-PK phosphorylation of Sp1 mediated by Tat with a consequent reduction in both basal and Tat-mediated transcriptional activation of the HIV LTR promoter. Sp1 is thought to be essential for basal transcription and Tat-mediated activation of HIV-1.

[6] = biological target: CDK11 (Homo sapiens, UniProt P21127); assay: Biotinylated compound pull-down of CDK11; format: binding; set-up: expressed in transfected cells; host or cells: HEK293T
Method: (§1) HEK293T cells were transfected with flag-tagged Tat 101 a.a. (Tat-F-101-wt), a shorter Tat version with 86 a.a. (Tat-F-86-wt), Tat 86 a.a. mutated in the basic domain (Tat-F-BRM), flag-tagged CDK11 (CDK11-F), flag-tagged 9G8 (9G8-F) and empty vector control.
(§2) DYNABEADS® MYONE™ Streptavidin T1 (12.5 μl slurry) (Invitrogen) were pre-saturated with 1.88 μl of 1 mM in DMSO of Biotin alone or Bio-dCA and incubated for 1 h at room temperature with orbital rocking, plus an additional 30 min with Biotin (0.63 μl of 1 mM in DMSO). Protein extracts (250 μg per sample) were incubated with the pre-saturated beads in lysis buffer supplemented with 0.1% BSA for 1 h at 4° C. with orbital rocking. After incubation, the beads were washed three times with lysis buffer.

[7] = tested on: human umbilical vein endothelial cells (HUVECs); conditions: read-out: average half maximal inhibitory concentration (IC50), anti-proliferative; cited from earlier work
[8] = biological target: ROCK II (Homo sapiens, UniProt O75116); conditions: cited from earlier work
[9] = biological target: T1, DNA-dependent protein kinase (DNA-PK) catalytic subunit (Homo sapiens, UniProt P78527); assay: Bio-CA pull-down / mass spectrometry, DNA-PK; format: binding
T1 construct: endogenous in cells; host or cells: P42 (HeLa-CD4-LTR-LacZ) cells; HEK293T cells
Method: FIG. 14: Bio-CA associated proteins. […] After SDS-PAGE analysis and Coomassie staining, gel slices were trypsin-digested and sent to mass spectrometry analysis.
To identify cellular proteins associated with CA, a biotinylated form of the compound (Bio-CA) was used. […] The Bio-CA was used to cover streptavidin-coated magnetic beads to pull down interacting proteins from either uninfected or chronically infected lysates of cells grown in the presence or absence of CA for 48 hours (FIG. 14D). The identity of the proteins pulled down under the different conditions was determined by HPLC MS/MS analysis. The proteins were identified with a greater than 95% confidence using a proprietary Scripps proteomics software package for protein identification, statistical analysis, and mass/peptide sequence correlation. The HIV proteome was added to the proteomics software search database before analysis. Many proteins were identified in uninfected untreated and in chronically untreated samples (approximately 300), however only 53 were displaced by more than 50% by the presence of CA. Of these 53 proteins, it appears that at least 2 may have a role in HIV-1 replication: DNA-dependent protein kinase catalytic subunit (DNA-PK) and helicase like transcription factor (HLTF).

[10] = biological target: CDK11 (Homo sapiens, UniProt Q9BWU1); conditions: cited from earlier work
[11] = tested on: Tat; assay: Biotinylated compound streptavidin-bead pull-down of Tat; format: binding, HIV-1; conditions: for competition for binding of recombinant Tat to Bio-dCA: excess competitor
Method: as §1
Recombinant Tat protein was incubated with Bio-dCA streptavidin-coated beads in the presence or absence of an excess of non-biotinylated dCA (represented as molar equivalent [eq.] of Bio-dCA). Raltegravir and recombinant GST-9G8 were used as a negative control competitor or as negative protein-binding control, respectively.
as §2
For the pull-down of recombinant Tat (#2222 of NIH) and GST-9G8, streptavidin-agarose beads (40 μl slurry) were pre-saturated with 1.5 μl of 1 mM in DMSO, Biotin alone, or Bio-dCA and incubated for 1 h at room temperature. […] After incubation, the beads were washed three times with PBS and proteins were eluted as before.

[12] = biological target: CDK8 (Homo sapiens, UniProt P49336); conditions: cited from earlier work
[13] = biological target: Sp1 (Homo sapiens, UniProt P08047); assay: Bio-CA pull-down, Sp1
Method: HEK293T cells were transfected with wt-Tat101-flag, vvtTat86-flag, Tat86mutant-TAR domain, CDK11-flag or 9G8-flag as negative control. Forty hours later, protein extracts were incubated with DYNABEADS® MYONE™ Streptavidin T1 coated with either biotin or Biotinylated-CA. Pulled down proteins analyzed by Western blot with the indicated antibodies.

[14] = tested on: basic region Tat mutant (Tat-1 BRM); assay: Biotinylated compound pull-down of basic region Tat mutant; format: binding, HIV-1
Method: as §1, §2

[15] = tested on: HIV-1 pNL43; assay: HIV-1 replication in PHA/IL-2 stimulated human PBMCs, p24 ELISA; format: cell-based; conditions: p24 ELISA, 5 days post infection
Method: Freshly isolated uninfected human PBMCs were stimulated with PHA for two days, washed, and grown from then on in IL-2 alone. […] Antigen p24 was measured 5 days post infection using a sandwich ELISA kit.
To isolate PBMCs, 24 ml of total blood diluted two fold in RPMI or PBS were carefully layered over 12 ml of Ficoll-paque and centrifuged at 2000 rpm for 20 min (brakes off). Resultant layers are approximately from top to bottom: plasma-platelets-PBMC-Ficoll-red blood cells (with granulocytes). Most of the plasma was pipetted off and discarded. The buffy coat with PBMC's was carefully removed from 3 large (50 ml) tubes and transferred to a new 50 ml tube. The remaining Ficoll and red blood cells were discarded in closed tubes. Enough PBS was added to the PBMCs to make up 50 ml and centrifuged at 1200 rpm for 10 min, brakes on. The supernatant was decanted and the pellet was loosened and washed twice with PBS. Washed pellet was recovered in 30 ml of RPMI 1640 supplemented with 10% serum, 1% Penicillin-streptomycin and mixed well. PBMCs were counted and plated at 1×10^6 cells/ml. To activate the PBMCs, PHA (phytohaemagglutinin) was added at 3 μg/ml. Two to three days later add Interleukin 2 (IL2) at 3×10^−3 μg/ml.
PHA activated PBMCs were centrifuged and recovered at 6×10^6 cells in 3 ml complete RPMI. Then 3 ml of viral supernatant was added and incubated for 4 h at 37° C. After this period, cells were centrifuged, washed 3 times with PBS and recovered in 3 ml complete RPMI. PBMCs were plated at 0.5 ml per well in a 6-well plate, and 0.5 ml media with DMSO control or anti-viral control at 2× final concentration was added. IL-2 was added at 3×10^−3 μg/ml. Supernatant was recovered for p24 assay every 3-4 days post infection. Cells were split at 1×10^6 cell per ml every 5-7 days.
HIV-1 transcription is intimately linked to T-cell activation due to shared motifs between the HIV-LTR and the regulatory regions in induced genes, namely NF-κB. A large variety of T cell stimuli activate NF-κB, including PHA, IL-2 and tumor necrosis factor alpha (TNF-α).

Sequence of CDK8 (P49336 whole entry): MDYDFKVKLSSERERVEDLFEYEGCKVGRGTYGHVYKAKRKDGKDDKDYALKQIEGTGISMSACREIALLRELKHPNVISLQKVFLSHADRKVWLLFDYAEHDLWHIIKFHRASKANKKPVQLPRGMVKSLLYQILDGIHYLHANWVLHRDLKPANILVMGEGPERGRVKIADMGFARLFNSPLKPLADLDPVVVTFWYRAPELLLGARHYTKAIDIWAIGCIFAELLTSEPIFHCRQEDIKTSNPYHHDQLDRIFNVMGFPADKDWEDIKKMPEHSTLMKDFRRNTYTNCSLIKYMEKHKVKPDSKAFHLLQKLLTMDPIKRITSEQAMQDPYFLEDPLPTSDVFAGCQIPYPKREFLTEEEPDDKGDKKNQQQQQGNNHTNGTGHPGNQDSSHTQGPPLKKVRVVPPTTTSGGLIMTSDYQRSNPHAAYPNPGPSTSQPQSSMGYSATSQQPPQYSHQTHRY
Sequence of CDK11 (Homo sapiens, UniProt Q9BWU1) (Q9BWU1 whole entry): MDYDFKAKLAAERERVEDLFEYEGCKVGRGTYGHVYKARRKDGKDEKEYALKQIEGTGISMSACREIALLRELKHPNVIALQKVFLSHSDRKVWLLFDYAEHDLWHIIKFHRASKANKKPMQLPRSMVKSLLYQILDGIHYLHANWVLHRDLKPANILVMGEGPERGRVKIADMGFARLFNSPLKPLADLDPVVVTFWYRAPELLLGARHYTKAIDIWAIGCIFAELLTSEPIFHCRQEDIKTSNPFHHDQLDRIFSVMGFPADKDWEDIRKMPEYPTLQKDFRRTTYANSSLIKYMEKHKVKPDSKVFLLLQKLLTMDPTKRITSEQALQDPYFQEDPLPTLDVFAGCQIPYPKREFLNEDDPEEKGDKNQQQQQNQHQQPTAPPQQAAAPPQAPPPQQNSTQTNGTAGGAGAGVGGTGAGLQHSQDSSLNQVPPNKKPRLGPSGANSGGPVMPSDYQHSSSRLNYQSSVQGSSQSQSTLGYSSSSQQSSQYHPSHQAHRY
T1 sequence (P78527 whole entry): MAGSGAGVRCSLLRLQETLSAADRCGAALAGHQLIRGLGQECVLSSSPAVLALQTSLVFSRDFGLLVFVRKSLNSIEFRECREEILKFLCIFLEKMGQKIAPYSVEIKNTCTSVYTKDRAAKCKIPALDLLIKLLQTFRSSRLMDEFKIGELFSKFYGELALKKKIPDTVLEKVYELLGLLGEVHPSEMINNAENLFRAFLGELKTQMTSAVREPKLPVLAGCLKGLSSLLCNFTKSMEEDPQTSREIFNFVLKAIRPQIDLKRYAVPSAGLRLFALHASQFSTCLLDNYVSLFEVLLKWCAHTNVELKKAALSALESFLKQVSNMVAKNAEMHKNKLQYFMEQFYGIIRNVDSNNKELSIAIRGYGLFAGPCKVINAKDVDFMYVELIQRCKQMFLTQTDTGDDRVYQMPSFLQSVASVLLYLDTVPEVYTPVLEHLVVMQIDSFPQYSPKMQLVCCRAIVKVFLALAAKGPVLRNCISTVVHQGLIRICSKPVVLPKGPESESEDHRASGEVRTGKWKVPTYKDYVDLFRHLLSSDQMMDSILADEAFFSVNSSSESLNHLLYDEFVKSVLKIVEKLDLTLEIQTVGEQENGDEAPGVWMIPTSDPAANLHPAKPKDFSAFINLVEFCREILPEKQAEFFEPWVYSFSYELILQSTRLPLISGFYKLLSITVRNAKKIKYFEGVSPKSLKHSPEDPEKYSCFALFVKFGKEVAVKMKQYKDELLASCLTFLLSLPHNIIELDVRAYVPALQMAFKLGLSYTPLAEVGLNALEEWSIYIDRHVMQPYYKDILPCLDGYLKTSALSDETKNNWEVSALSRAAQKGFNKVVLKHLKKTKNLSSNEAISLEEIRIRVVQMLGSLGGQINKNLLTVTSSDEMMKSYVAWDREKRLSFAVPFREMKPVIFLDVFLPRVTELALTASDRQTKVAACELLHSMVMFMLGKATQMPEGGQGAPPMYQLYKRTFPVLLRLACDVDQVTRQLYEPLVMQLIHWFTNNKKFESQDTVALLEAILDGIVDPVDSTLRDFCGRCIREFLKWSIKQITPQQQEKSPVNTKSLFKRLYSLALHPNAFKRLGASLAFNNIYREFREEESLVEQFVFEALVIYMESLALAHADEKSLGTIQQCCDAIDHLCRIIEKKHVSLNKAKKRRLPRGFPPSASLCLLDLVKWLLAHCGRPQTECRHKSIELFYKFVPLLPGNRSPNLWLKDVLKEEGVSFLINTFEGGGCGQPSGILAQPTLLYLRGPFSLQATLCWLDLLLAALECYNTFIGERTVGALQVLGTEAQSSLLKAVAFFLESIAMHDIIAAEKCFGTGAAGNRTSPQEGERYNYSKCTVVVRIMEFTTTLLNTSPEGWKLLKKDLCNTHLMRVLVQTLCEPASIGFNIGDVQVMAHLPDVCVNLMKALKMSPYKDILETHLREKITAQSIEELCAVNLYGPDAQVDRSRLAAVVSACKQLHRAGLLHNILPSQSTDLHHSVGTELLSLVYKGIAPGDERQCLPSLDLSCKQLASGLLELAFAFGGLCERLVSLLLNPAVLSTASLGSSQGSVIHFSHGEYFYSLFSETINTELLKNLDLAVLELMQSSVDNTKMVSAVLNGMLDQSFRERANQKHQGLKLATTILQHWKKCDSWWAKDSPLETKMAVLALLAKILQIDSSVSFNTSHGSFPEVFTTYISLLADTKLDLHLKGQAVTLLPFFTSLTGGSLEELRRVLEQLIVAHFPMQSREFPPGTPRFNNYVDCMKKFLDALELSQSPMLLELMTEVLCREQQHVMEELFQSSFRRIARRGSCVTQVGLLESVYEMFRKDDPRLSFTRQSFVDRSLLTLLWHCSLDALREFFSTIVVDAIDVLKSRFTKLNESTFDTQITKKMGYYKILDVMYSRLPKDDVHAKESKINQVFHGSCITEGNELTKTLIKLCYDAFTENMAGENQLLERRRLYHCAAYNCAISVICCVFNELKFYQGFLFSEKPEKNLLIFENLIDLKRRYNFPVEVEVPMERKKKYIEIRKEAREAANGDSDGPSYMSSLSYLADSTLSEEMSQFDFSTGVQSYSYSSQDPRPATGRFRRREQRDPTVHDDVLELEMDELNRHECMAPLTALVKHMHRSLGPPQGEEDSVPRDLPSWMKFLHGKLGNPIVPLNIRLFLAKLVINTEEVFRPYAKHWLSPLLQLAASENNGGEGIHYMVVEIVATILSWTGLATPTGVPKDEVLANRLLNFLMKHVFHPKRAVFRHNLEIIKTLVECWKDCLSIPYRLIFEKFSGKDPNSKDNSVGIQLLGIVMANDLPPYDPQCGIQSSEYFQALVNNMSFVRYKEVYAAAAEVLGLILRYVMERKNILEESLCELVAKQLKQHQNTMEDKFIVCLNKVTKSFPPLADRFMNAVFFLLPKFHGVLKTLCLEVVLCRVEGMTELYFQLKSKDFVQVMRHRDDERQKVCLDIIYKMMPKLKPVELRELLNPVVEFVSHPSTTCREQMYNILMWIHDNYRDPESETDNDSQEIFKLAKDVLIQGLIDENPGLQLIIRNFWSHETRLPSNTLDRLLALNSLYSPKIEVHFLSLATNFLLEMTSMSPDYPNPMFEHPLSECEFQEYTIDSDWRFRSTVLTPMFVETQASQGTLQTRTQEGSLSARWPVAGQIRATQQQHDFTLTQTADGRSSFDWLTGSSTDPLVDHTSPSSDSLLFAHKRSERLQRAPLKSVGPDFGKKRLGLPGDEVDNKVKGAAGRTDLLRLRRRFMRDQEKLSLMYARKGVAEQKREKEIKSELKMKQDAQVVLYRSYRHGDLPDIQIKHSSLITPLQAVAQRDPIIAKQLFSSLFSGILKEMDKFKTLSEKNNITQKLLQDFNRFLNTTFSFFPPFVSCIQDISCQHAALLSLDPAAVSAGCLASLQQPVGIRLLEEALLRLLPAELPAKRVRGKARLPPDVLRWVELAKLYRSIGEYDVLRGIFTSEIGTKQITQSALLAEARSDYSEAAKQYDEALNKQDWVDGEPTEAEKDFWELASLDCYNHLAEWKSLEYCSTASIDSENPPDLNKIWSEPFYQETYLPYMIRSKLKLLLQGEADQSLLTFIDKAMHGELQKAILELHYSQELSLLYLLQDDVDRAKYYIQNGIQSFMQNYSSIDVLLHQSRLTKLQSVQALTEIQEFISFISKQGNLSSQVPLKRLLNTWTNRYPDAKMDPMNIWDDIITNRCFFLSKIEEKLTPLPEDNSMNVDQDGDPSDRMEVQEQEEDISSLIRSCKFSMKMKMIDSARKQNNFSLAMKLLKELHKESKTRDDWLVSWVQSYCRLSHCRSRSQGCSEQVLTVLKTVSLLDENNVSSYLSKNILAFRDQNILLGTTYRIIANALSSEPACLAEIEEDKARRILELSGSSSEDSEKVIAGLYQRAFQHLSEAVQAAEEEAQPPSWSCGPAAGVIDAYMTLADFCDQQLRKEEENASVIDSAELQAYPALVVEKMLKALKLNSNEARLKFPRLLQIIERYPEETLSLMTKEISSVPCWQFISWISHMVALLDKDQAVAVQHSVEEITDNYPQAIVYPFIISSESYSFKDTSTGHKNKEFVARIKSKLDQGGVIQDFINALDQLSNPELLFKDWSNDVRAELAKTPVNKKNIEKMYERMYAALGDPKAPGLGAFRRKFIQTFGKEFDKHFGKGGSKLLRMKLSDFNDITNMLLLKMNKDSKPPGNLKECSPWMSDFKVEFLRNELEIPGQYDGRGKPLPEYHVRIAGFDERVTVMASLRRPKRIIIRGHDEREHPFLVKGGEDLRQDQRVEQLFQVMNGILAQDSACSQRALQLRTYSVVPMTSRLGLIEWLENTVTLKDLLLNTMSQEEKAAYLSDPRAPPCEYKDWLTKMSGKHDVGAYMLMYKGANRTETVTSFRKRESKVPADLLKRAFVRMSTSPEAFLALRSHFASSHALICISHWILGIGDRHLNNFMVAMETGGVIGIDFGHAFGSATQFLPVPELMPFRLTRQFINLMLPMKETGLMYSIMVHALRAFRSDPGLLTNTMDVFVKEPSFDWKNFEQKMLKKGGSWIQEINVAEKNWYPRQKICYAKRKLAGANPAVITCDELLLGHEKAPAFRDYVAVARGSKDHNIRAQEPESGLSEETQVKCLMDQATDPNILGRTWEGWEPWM

Cc1cn([C@H]2C[C@H](N=[N+]=[N-])[C@@H](CO)O2)c(=O)[nH]c1=O [AZT, zidovudine, reference compound]
EC50 [1]: 5.2 nM

CN(C)[C@H]1C[C@@]23CC[C@@]4(O2)C(=CC[C@]2(C)C(c5ccc6ccncc6c5)=CC[C@H]24)C=C3[C@@H](OC(=O)CCCCCNC(=O)CCCC[C@@H]2SC[C@@H]3NC(=O)N[C@@H]32)[C@@H]1O.O=C(O)C(F)(F)F.O=C(O)C(F)(F)F [Bio-CA]
viability of the cells [2]: did not compromise the viability of the cells | EC50 relative to CA [3]: 10 fold

CN(C)C1CC23CCC4(O2)C(=CCC2(C)C(c5ccc6ccncc6c5)CCC42)C=C3C(O)C1O (stereo not shown) [CA, Cortistatin A]
pull down of RNA polymerase [4]: shown to pull down | transcription activity from CMV and MLV promoters [5]: reduces the transcription activity | interaction with CDK11 (pull-down) [6]: did not interact | IC50 [7]: 350 nM | Kd [8]: 220 ± 2 nM | interaction with DNA-PK [9]: seems to interact | Kd [10]: 10 ± 2 nM | competition for binding of recombinant Tat to Bio-dCA [11]: competed | interaction with Tat (pull-down) ([11]; flag-tagged Tat expressed in cells or recombinant Tat): interacts | Kd [12]: 17 ± 2 nM | interaction with Sp1 [13]: not observed | EC50 for the inhibition of HIV activity [3]: picomolar to low nanomolar range | interaction with TAR-nonbinding basic region Tat mutant (pull-down) [14]: not

Cc1nnc(C(=O)NC(C)(C)c2nc(C(=O)NCc3ccc(F)cc3)c(O)c(=O)n2C)o1 [Raltegravir, reference compound]
competition for binding of recombinant Tat to Bio-dCA [11]: not | EC50, HIV-1 replication in primary cells (PBMCs) [15]: similar

CC(C)(C)NC(=O)[C@@H]1C[C@@H]2CCCC[C@@H]2CN1C[C@@H](O)[C@H](Cc1ccccc1)NC(=O)[C@H](CC(N)=O)NC(=O)c1ccc2ccccc2n1 [saquinavir, reference compound]
EC50, HIV-1 replication in primary cells (PBMCs) [15]: similar
